Results on eleven compounds are retold here after ChEMBL document CHEMBL4616643, “Cytotoxic and anti-inflammatory effects of lignans and diterpenes from Cupressus macrocarpa” (Bioorg Med Chem Lett, 2020).

The IC50 is the concentration that inhibits the measured activity by half. The inhibition is the change of the read-out against control, counted positive when it falls.

In one experiment the test system is MDA-MB-231. Kind of experiment: Antiproliferative activity against human MDA-MB-231 cells assessed as inhibition of cell viability by MTT assay. It counts as functional, cell-based. In general terms: Tetrazolium assays rely on reduction of a dye to a coloured formazan, in cell work by metabolically active cells.
Another experiment relates to A549. Kind of experiment: Antiproliferative activity against human A549 cells assessed as inhibition of cell viability by MTT assay. It counts as functional, cell-based.
For experiment [1], the system named is Neutrophil. Kind of experiment: Anti-inflammatory activity against human neutrophils assessed as inhibition of fMLF/CB-induced elastase release preincubated for 5 mins followed by fMLF addition after priming with CB for 3 mins and measured after 10 mins by spectrophotometric analysis. The class given is functional, cell-based.
Another experiment relates to HepG2. Kind of experiment: Antiproliferative activity against human HepG2 cells assessed as inhibition of cell viability by MTT assay. The class given is functional, cell-based.
Experiment [2] deals with Neutrophil. Kind of experiment: Anti-inflammatory activity against human neutrophils assessed as inhibition of fMLF/CB-induced superoxide anion generation at 10 uM preincubated for 5 mins followed by fMLF addition after priming with CB for 3 mins and measured after 10 mins by spectrophotometric analysis relative to control. It counts as functional.
Experiment [3] deals with Neutrophil. Kind of experiment: Anti-inflammatory activity against human neutrophils assessed as inhibition of fMLF/CB-induced superoxide anion generation preincubated for 5 mins followed by fMLF addition after priming with CB for 3 mins and measured after 10 mins by spectrophotometric analysis. It counts as functional, cell-based.
Experiment [4] relates to Neutrophil. Kind of experiment: Anti-inflammatory activity against human neutrophils assessed as inhibition in fMLF/CB-induced elastase release at 10 uM preincubated for 5 mins followed by fMLF addition after priming with CB for 3 mins and measured after 10 mins by spectrophotometric analysis relative to control. The class given is functional.
Setting [5] is: Homo sapiens, MDA-MB-231, read-out: IC50.
[6] abbreviates: Homo sapiens, A549, read-out: IC50.
Setting [7] is: Homo sapiens, HepG2, read-out: IC50.

Values after ≈ are worked out from the molar mass of the structure shown.

On to `C=C1CC[C@@H]2[C@](C)(CCC[C@]2(C)C(=O)O)[C@H]1CC/C(C)=C/COC(C)=O`, for which the IC50 with MDA-MB-231 (setting [5]) came to 14.8 µg/mL (≈ 40.8 µM); in the experiment on A549 (setting [6]) it was 8.9 µg/mL (≈ 24.6 µM).

`C=C(C=O)CC[C@H]1C(=C)CC[C@@H]2[C@]1(C)CCC[C@]2(C)C(=O)O`: the IC50 in the experiment with MDA-MB-231 (setting [5]) was found to be 14.1 µg/mL (≈ 46.3 µM).

Regarding `COc1cc(C[C@H]2COC(=O)[C@@H]2Cc2ccc(O)c(OC)c2)ccc1O` [MATAIRESINOL], the figures for the IC50 in the experiment with Neutrophil [1], in the experiment with HepG2 (setting [7]) and in the experiment with Neutrophil [3] were 6.6 µM, 15.1 µg/mL (≈ 42.1 µM) and 2.7 µM, respectively. For the same compound, the results for the inhibition at 10 µM with Neutrophil [2] and in the experiment with Neutrophil [4] were 95.2% and 61.9%, respectively.

For `COc1cccc2c1C(=O)c1c(O)c3c(c(O)c1C2=O)C[C@@](O)(C(=O)CO)C[C@@H]3O[C@H]1C[C@H](N)[C@H](O)[C@H](C)O1` [DOXORUBICIN], the IC50 with MDA-MB-231 (setting [5]) was found to be 0.6 µg/mL (≈ 1.1 µM); with A549 (setting [6]), 0.057 µg/mL (≈ 0.105 µM).

Turning to `C=C1CC[C@@H]2[C@](C)(CO)CCC[C@@]2(C)[C@@H]1CCC(C)=O`, the inhibition at 10 µM came to 33.5% in the experiment on Neutrophil [2] and 15.7% in the experiment with Neutrophil [4].

As for `COc1cc([C@@H]2c3cc4c(cc3C[C@H]3COC(=O)[C@@H]32)OCO4)cc(OC)c1OC` [DESOXYPODOPHYLLOTOXIN], the IC50 in the experiment with MDA-MB-231 (setting [5]) was 0.07 µg/mL (≈ 0.176 µM); in the experiment on HepG2 (setting [7]), 14.5 µg/mL (≈ 36.4 µM); in the experiment with A549 (setting [6]), 0.004 µg/mL (≈ 0.01 µM).

Consider `C=C(CC[C@H]1C(=C)CC[C@H]2[C@@](C)(CO)CCC[C@]12C)C(=O)CO`, for which the IC50 with MDA-MB-231 (setting [5]) was found to be 19.9 µg/mL (≈ 62.1 µM); in the experiment on A549 (setting [6]) it was 19.8 µg/mL (≈ 61.8 µM).

Turning to `C=C(C=O)CC[C@H]1C(=C)CC[C@@H]2[C@]1(C)CCC[C@@]2(C)O`, the IC50 with MDA-MB-231 (setting [5]) stood at 14.8 µg/mL (≈ 53.5 µM).

Take `C=C1CC[C@@H]2[C@](C)(CCC[C@]2(C)C(=O)O)[C@H]1CC/C(C)=C/CO` [ISOCUPRESSIC ACID]: the IC50 result in the experiment on MDA-MB-231 (mda-mb-231) is “Not Active”; in the experiment on HepG2 (hepg2), “Not Active”; in the experiment with Neutrophil [3] it was 4.8 µM; in the experiment with A549 (a549), “Not Active”. For the same compound, the inhibition at 10 µM in the experiment with Neutrophil [2] was 78%; with Neutrophil [4], 19.9%.

With `COc1cc(C[C@H]2C(=O)OC[C@@H]2Cc2ccc(OC)c(OC)c2)ccc1O` [ARCTIGENIN], the IC50 was determined as 1.1 µg/mL (≈ 2.95 µM) with MDA-MB-231 (setting [5]), 2.8 µg/mL (≈ 7.52 µM) in the experiment on HepG2 (setting [7]) and 0.8 µg/mL (≈ 2.15 µM) in the experiment on A549 (setting [6]).

Turning to `C=C1CC[C@H]2[C@@](C)(CO)CCC[C@]2(C)[C@H]1CC/C(C)=C/CO`, the figures for the inhibition at 10 µM with Neutrophil [2] and in the experiment with Neutrophil [4] were 50.7% and 22.3%, respectively. Moreover, the IC50 in the experiment on Neutrophil [3] was 9.6 µM.
